Measurements reported in publication PMC6536496, “Modulation of antibiotic sensitivity and biofilm formation in Pseudomonas aeruginosa by interspecies signal analogues” (Nature Communications, 2019).

Molecular target: T1, PA1396 (Pseudomonas aeruginosa, UniProt Q9I3U8)
T1 construct: reporter rows: PA1396 in P. aeruginosa cells
Assay: auto-phosphorylation in liposomes, […] SDS-PAGE
Type: biochemical
Details: 10 mM MgCl2, 1 mM DTT, room temperature, 10 min

T1 sequence (Q9I3U8 entry or part of it): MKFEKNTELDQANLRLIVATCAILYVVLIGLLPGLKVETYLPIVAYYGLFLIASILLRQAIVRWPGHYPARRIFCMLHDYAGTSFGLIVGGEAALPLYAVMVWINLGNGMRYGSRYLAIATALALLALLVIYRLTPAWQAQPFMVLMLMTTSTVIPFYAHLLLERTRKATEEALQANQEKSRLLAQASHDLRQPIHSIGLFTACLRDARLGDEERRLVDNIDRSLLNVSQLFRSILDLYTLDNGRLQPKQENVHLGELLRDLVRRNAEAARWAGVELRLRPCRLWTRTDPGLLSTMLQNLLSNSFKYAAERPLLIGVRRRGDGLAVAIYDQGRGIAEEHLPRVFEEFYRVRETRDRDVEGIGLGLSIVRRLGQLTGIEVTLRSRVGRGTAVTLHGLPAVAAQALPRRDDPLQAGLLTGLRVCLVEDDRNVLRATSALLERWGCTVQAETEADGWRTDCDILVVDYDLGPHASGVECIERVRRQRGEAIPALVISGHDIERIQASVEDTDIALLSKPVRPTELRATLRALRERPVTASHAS

Structure (SMILES): CC(C)CCCCCCC/C=C\C(=O)O [C1, cis-11-methyl-2-dodecenoic acid]
- auto-phosphorylation in liposomes, 32P SDS-PAGE (agonist, 10 µM): addition of DSF to PA1396-loaded liposomes led to a robust increase in the level

Structure (SMILES): CC(C)CCCCCCC/C=C\C(=O)NS(C)(=O)=O [C23, (Z)-11-methyl-N-(methylsulfonyl)dodec-2-enamide]
- auto-phosphorylation in liposomes, 32P SDS-PAGE (antagonist against 10 µM DSF): C23 blocks the recognition of DSF by PA1396
